Experimental data published in a compilation of properties of binary mixtures (doi:10.1524/zpch.2013.0328).

Experiment: xn = mol fraction of the nth substance listed
Conditions: 100 kPa

CCCCCCCCCCCCCC[P+](CCCCCC)(CCCCCC)CCCCCC.N#C[N-]C#N + O
viscosity [mPa·s]
Conditions | 303.15 K | 313.15 K | 323.15 K | 333.15 K | 343.15 K | 353.15 K
x1 = 0.551 | 138 | 86 | 53 | 40 | 28 | 22
x1 = 0.8444 | – | 196 | 123 | 82 | 56 | 41

CC(C)C[P+](C)(CC(C)C)CC(C)C.Cc1ccc(S(=O)(=O)[O-])cc1 + O
viscosity [mPa·s]
Conditions | 301.15 K | 313.15 K | 323.15 K | 333.15 K | 343.15 K | 353.15 K
x1 = 0.4387 | 264 | 131 | – | 47 | – | 24
x1 = 0.9022 | – | 887 | 423 | – | 126 | –

CCCCCCCCCCCCCC[P+](CCCC)(CCCC)CCCC.CCCCCCCCCCCCc1ccc(S(=O)(=O)[O-])cc1 + O
viscosity [mPa·s]
Conditions | 298.15 K | 303.15 K | 313.15 K | 323.15 K | 333.15 K | 343.15 K | 353.15 K
x1 = 0.3452 | 506 | 365 | 197 | – | 74 | 54 | 40
x1 = 0.892 | – | – | 1477 | 750 | 409 | 238 | –

CCCCCCCC[N+](C)(CCCCCCCC)CCCCCCCC.O=S(=O)([N-]S(=O)(=O)C(F)(F)F)C(F)(F)F + O
x1 = 0.8467
Conditions | viscosity [mPa·s]
298.15 K | 601
303.15 K | 426
323.15 K | 144
333.15 K | 92
353.15 K | 46

CC[n+]1ccn(C)c1.O=S(=O)([N-]S(=O)(=O)C(F)(F)F)C(F)(F)F + O
x2 = 0.0086
Conditions | viscosity [mPa·s]
299.15 K | 33
303.15 K | 28
313.15 K | 22
323.15 K | 18
333.15 K | 14
343.15 K | 12

CC(CC(C)(C)C)CP(=O)([O-])CC(C)CC(C)(C)C.CCCCCCCCCCCCCC[P+](CCCCCC)(CCCCCC)CCCCCC + O
viscosity [mPa·s]
Conditions | 298.15 K | 303.15 K | 313.15 K | 323.15 K | 333.15 K | 343.15 K | 353.15 K
x1 = 0.1299 | – | 105 | 65 | 42 | 29 | 22 | 16
x1 = 0.7942 | 1004 | 757 | 439 | – | 170 | 111 | 78
